Patent US10745397B2, “1-Substituted 1,2,3,4-tetrahydro-1,7-naphthyridin-8-amine derivatives and their use as EP4 receptor antagonists” (TAKEDA PHARMACEUTICAL COMPANY LIMITED, priority 2015, dated 2020)

Key:
human EP4 receptor = biological target: T1, human EP4 receptor (Homo sapiens, UniProt P35408); assay: hEP4 radioligand binding assay ([3H] PGE2 competitive binding, membrane fractions); conditions: 1 nM [3H] PGE2; for inhibition at 0.3 µM: 300 nM compound; for inhibition at 1 µM: 1 μM compound
T1 construct: expressed in transfected cells; host or cells: FreeStyle293 (HEK293F) cells, transient transfection with pcDNA3.1(+), total membrane fraction
From the text: The full-length coding sequences for human EP1 (NM_000955), human EP2 (NM_000956), human EP3 (NM_198717) and human EP4 (NM_000958) were cloned into pcDNA3.1(+) vector (Life Technologies, CA, USA). In order to prepare overexpressed EP 1-4 membrane in Freestyle293 cells (Life Technologies, CA, USA), the pcDNA3.1(+) vector encoding a cDNA of the relevant gene was transiently transfected into FreeStyle293 cells using 293Fectin (Life Technologies, CA, USA) according to the manufacturer instruction manual. After 2 days, cultured cells were centrifuged (1,000×g, 10 min, 4° C.) and pellets homogenized by a probe sonicator (Sonics vibracell, Sonics and Materials Inc., USA; 31% Amp, 5 sec pulse, Imin interval, 4 cycles) in ice-cold 50 mM Tris-HCl buffer (pH 7.5 at 25° C.) containing 0.5 mM EDTA, 250 mM Sucrose and 10 mM MgCl2. Cell homogenates were centrifuged (890×g, 10 min, 4° C.), and the supernatant was recovered. Total membrane fractions were isolated by ultracentrifugation (140,000×g, 60 min, 4° C.). Pellets were re-suspended in the same buffer, and stored at −80° C. until use. The protein concentration in homogenate was determined with the BCA Protein Assay Kit (Pierce Biotechnology, Inc., IL, USA) according to the manufacturer protocol.
The binding affinity of the compounds was evaluated using a competitive radioligand binding assay which measured the specific binding of [3H] PGE2 to the human EP4 receptor. Briefly, varying concentrations of NCEs were incubated with cell membrane fractions generated HEK293F cells transiently transfected with human EP4 receptor as described above. Each reaction consisted of 10 μg membrane protein and NCE in 50 mM Tris-HCl, pH-6.0 by NaOH, 10 mM MgCl2 and 0.5 mM EDTA assay buffer. Radioligand, [3H] PGE2 (American Radiochemicals Inc. Specific Activity 180 Ci/mmol), at a final of 1 nM was added to each reaction where the final assay volume was 200 μL and concentration of DMSO was adjusted to 1%. Appropriate controls included total binding in the assay (vehicle control) and control for non-specific binding. Non-specific binding was evaluated by incubating the hEP4 protein with 10 μM unlabeled PGE2 under the same assay conditions as NCEs. The reaction was incubated at room temperature for 2 hours and terminated by harvesting the reaction contents to a PEI coated GF/C filter plate (PerkinElmer). The plate was washed four times with cold 50 mM Tris-HCl, pH-7.5 wash buffer and dried at 50° C. for 2 hours or at 37° C. overnight. [3H] PGE2 bound to the protein was quantified by the addition of 25 μL of Microscint PS (PerkinElmer) and plate was read on MicroBeta2 liquid Scintillation and luminescence counter (PerkinElmer). Data was analyzed using GraphPad Prism 5 (GraphPad Software Inc., San Diego, Calif.) where non-specific binding was normalized to 0% specific binding of [3]PGE2 and vehicle control (DMSO) was normalized to 100% specific binding of [3]PGE2. Binding affinity of NCEs, Ki, was generated using One site—Fit Ki equation in GraphPad Prism 5.

[1] = biological target: T2, hEP4 (C6 glioma cells overexpressing hEP4) (Homo sapiens, UniProt P35408); assay: hEP4 cell based assay (cAMP), inhibition of PGE2 induced cAMP, HTRF; conditions: 1 μM compound, PGE2 at EC80
T2 construct: host or cells: C6 glioma cells overexpressing hEP4
Description: The functional assay for hEP4 activation and inhibition was carried out via the quantitative determination of agonist, PGE2, induced cAMP response using HTRF in a competitive immunoassay (Cisbio dynamic 2 kit). NCEs at varying concentrations were evaluated for inhibition of PGE2 induced increase in cAMP. Briefly, C6 glioma cells overexpressing hEP4 (Takeda) were cultured in DMEM (low glucose, pyruvate), 10% FBS (Gibco) and PenStep. The cells were harvested on the day of the assay, washed with HBSS+10 mM HEPES (pH 7.4)+0.1% BSA buffer and pre-incubated with varying concentrations of NCE. Each reaction contained 7000 cells and NCEs in HBSS+10 mM HEPES+0.1% BSA assay buffer along with PDE inhibitors IBMX and Ro 20-1724 (final concentration of each inhibitor […]). Following 15 min pre-incubation, the cells were treated with EC80 concentration of agonist PGE2 for 30 min to induce cAMP. Final volume of the assay was 6 μL and DMSO concentration was maintained at 1%. The reaction was terminated with the addition of cAMP labeled with the dye d2 in lysis buffer according to manufacturers' protocol. This was followed by the addition of the anti-cAMP antibody labeled with Cryptate according to the manufacturers' protocol. The reaction was incubated at room temperature in dark for 45 min and the plate was evaluated for fluorescence at 665 nm (FRET) and 620 nm (cryptate emission) on a Flexstation III microplate reader (Molecular Devices, Sunnyvale, Calif.) Ex max: 313 nm; Em1: 620 nm; Em2: 665 nm. Data was analyzed using GraphPad Prism 5 (GraphPad Software Inc., San Diego, Calif.) where cells treated with agonist (EC80) was normalized to 0% inhibition of hEP4 and cells treated with buffer (no agonist) was normalized to 100% inhibition of hEP4. IC50 of NCEs was generated using non-linear regression—Log(inhibitor) vs. response equation in GraphPad Prism 5.

T1 sequence (P35408 whole entry): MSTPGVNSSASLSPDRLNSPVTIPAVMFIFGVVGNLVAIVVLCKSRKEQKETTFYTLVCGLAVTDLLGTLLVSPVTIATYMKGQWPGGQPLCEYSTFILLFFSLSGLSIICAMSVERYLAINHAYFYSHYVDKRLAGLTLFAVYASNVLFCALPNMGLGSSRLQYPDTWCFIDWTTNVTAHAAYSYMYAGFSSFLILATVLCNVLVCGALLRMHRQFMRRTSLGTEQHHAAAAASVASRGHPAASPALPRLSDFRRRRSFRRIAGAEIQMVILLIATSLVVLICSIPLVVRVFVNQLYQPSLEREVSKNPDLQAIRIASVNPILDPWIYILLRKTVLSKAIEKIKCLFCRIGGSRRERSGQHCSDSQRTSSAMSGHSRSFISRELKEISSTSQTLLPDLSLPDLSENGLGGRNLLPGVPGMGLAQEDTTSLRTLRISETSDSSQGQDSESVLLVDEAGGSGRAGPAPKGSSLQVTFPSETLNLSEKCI
T2 sequence (P35408 whole entry): as above

Row | inhibition at 0.3 µM (human EP4 receptor) [%] | inhibition at 1 µM (human EP4 receptor) [%] | inhibition at 1 µM [1] [%] | SMILES
1 | 12 |  |  | COC(=O)c1ccc([C@H](C)Nc2ncnc3c2N(Cc2cccc(Cl)c2)C(=O)CO3)cc1 [Example A46, methyl 4-[(1S)-1-[[5-[(3-chlorophenyl)methyl]-6-oxo-pyrimido[4,5-b][1,4]oxazin-4-yl]amino]ethyl]benzoate]
2 | 12 |  |  | COC(=O)c1ccc(C2(Nc3nccc4c3N(Cc3ccc(F)c(F)c3)C(=O)CO4)CC2)cc1 [Example A47, methyl 4-[1-[[4-[(3,4-difluorophenyl)methyl]-3-oxopyrido[4,3-b][1,4]oxazin-5-yl]amino]cyclopropyl]benzoate]
3 | 28 |  |  | COC(=O)c1ccc([C@H](C)Nc2nccc3c2N(C(=O)c2ccc(C(F)(F)F)cc2)CCO3)cc1 [Example A48, methyl 4-[(1S)-1-[[4-[4-(trifluoromethyl)benzoyl]-2,3-dihydropyrido[4,3-b][1,4]oxazin-5-yl]amino]ethyl]benzoate]
4 | 17 |  |  | COc1ccc(CNc2nccc3c2N(Cc2ccc(F)c(F)c2)CCO3)cc1 [Example A49, 4-[(3,4-difluorophenyl)methyl]-N-[(4-methoxyphenyl)methyl]-2,3-dihydropyrido[4,3-b][1,4]oxazin-5-amine]
5 | 26 |  |  | Cc1cccnc1CNc1nccc2c1N(Cc1ccc(F)c(F)c1)CCO2 [Example A50, 4-[(3,4-difluorophenyl)methyl]-N-[(3-methyl-2-pyridyl)methyl]-2,3-dihydropyrido[4,3-b][1,4]oxazin-5-amine]
6 |  | 29 |  | Fc1ccc(CN2CCOc3ccnc(NCC4CCCCC4)c32)cc1F [Example A51, N-(cyclohexylmethyl)-4-[(3,4-difluorophenyl)methyl]-2,3-dihydropyrido[4,3-b][1,4]oxazin-5-amine]
7 | 93 |  | 100 | C[C@H](Nc1nccc2c1N(Cc1ccccc1)CCO2)c1ccc(C(=O)O)cc1 [Example B1, 4-[(1S)-1-[(4-Benzyl-2,3-dihydropyrido[4,3-b][1,4]oxazin-5-yl)amino]ethyl]benzoic acid]
8 | 81 |  | 90 | C[C@H](Nc1nccc2c1N(CCOc1ccc(F)cc1)CCO2)c1ccc(C(=O)O)cc1 [Example B3, 4-[(1S)-1-[[4-[2-(4-Fluorophenoxy)ethyl]-2,3-dihydropyrido[4,3-b][1,4]oxazin-5-yl]amino]ethyl]benzoic acid]
9 | 74 |  | 100 | C[C@H](Nc1nccc2c1N(Cc1ccc(C(F)(F)F)cc1)CCO2)c1ccc(C(=O)O)cc1 [Example B5, 4-[(1S)-1-[[4-[[4-(trifluoromethyl)phenyl]methyl]-2,3-dihydropyrido[4,3-b][1,4]oxazin-5-yl]amino]ethyl]benzoic acid]
10 | 89 |  | 100 | C[C@H](Nc1nccc2c1N(Cc1ccc(F)c(F)c1)CCO2)c1ccc(C(=O)O)cc1 [Example B6, 4-[(1S)-1-[[4-[(3,4-difluorophenyl)methyl]-2,3-dihydropyrido[4,3-b][1,4]oxazin-5-yl]amino]ethyl]benzoic acid]
11 | 99 |  | 100 | C[C@H](Nc1nccc2c1N(Cc1ccc(Cl)cc1)CCO2)c1ccc(C(=O)O)cc1 [Example B7, 4-[(1S)-1-[[4-[(4-chlorophenyl)methyl]-2,3-dihydropyrido[4,3-b][1,4]oxazin-5-yl]amino]ethyl]benzoic acid]
12 | 42 |  |  | C[C@H](Nc1nccc2c1N(Cc1ccccn1)CCO2)c1ccc(C(=O)O)cc1 [Example B27, 4-[(1S)-1-[[4-(2-pyridylmethyl)-2,3-dihydropyrido[4,3-b][1,4]oxazin-5-yl]amino]ethyl]benzoic acid]
13 | 49 |  |  | C[C@H](Nc1nccc2c1N(Cc1cccnc1)CCO2)c1ccc(C(=O)O)cc1 [Example B28, 4-[(1S)-1-[[4-(3-pyridylmethyl)-2,3-dihydropyrido[4,3-b][1,4]oxazin-5-yl]amino]ethyl]benzoic acid]
14 | 42.5 |  |  | C[C@H](Nc1nccc2c1N(Cc1cccc(Cl)c1)CCN2C)c1ccc(C(=O)O)cc1 [Example B34, 4-[(1S)-1-[[4-[(3-chlorophenyl)methyl]-1-methyl-2,3-dihydropyrido[3,4-b]pyrazin-5-yl]amino]ethyl]benzoic acid]
15 | 42.4 |  |  | C[C@H](Nc1nccc2c1N(Cc1ccc(C(F)(F)F)cc1)CCN2C)c1ccc(C(=O)O)cc1 [Example B35, 4-[(1S)-1-[[1-methyl-4-[[4-(trifluoromethyl)phenyl]methyl]-2,3-dihydropyrido[3,4-b]pyrazin-5-yl]amino]ethyl]benzoic acid]
16 | 49 |  |  | C[C@H](Nc1nccc2c1N(Cc1ccc(C(F)(F)F)cc1)C(=O)CS2)c1ccc(C(=O)O)cc1 [Example B36, 4-[(1S)-1-[[3-oxo-4-[[4-(trifluoromethyl)phenyl]methyl]pyrido[4,3-b][1,4]thiazin-5-yl]amino]ethyl]benzoic acid]
17 | 88 |  |  | C[C@H](Nc1ncnc2c1N(Cc1cccc(Cl)c1)CCO2)c1ccc(C(=O)O)cc1 [Example B38, 4-[(1S)-1-[[5-[(3-chlorophenyl)methyl]-6,7-dihydropyrimido[4,5-b][1,4]oxazin-4-yl]amino]ethyl]benzoic acid]
18 | 47 |  |  | Cc1noc(C)c1CN1CCOc2ccnc(N[C@@H](C)c3ccc(C(=O)O)cc3)c21 [Example B41, 4-[(1S)-1-[[4-[(3,5-dimethylisoxazol-4-yl)methyl]-2,3-dihydropyrido[4,3-b][1,4]oxazin-5-yl]amino]ethyl]benzoic acid]
19 | 0.3 | 26 |  | C[C@H](Nc1nccc2c1N(Cc1ccc(F)c(F)c1)C(=O)CS2)c1ccc(C(=O)O)cc1 [Example B42, 4-[(1S)-1-[[4-[(3,4-difluorophenyl)methyl]-3-oxopyrido[4,3-b][1,4]thiazin-5-yl]amino]ethyl]benzoic acid]
20 | 10 |  |  | C[C@H](Nc1nccc2c1N(Cc1cccc(Cl)c1)C(=O)CS2)c1ccc(C(=O)O)cc1 [Example B43, 4-[(1S)-1-[[4-[(3-chlorophenyl)methyl]-3-oxopyrido[4,3-b][1,4]thiazin-5-yl]amino]ethyl]benzoic acid]
21 | 60 |  |  | C[C@H](Nc1ncc(C2CC2)c2c1N(Cc1cccc(C(F)(F)F)c1)CCO2)c1ccc(C(=O)O)cc1 [Example B47, 4-[(1S)-1-[[8-cyclopropyl-4-[[3-(trifluoromethyl)phenyl]methyl]-2,3-dihydropyrido[4,3-b][1,4]oxazin-5-yl]amino]ethyl]benzoic acid]
